We go through 13 molecules from patent publication US12351559B2 (Biohaven Therapeutics Ltd., priority 2014, dated 2025).

For the assay, the target named is T1, Kv7.2/7.3 (Homo sapiens, UniProt O43525+O43526).
T1 construct: host or cells: HEK cells, tetracycline-inducible expression
The assay is described as follows: Kv7.2/7.3 activation assay, QPatch planar patch-clamp, single concentration screen. The format is cell-based. On the set-up: key: <1.2-fold increase over baseline (−); +/−: as a range from <1.2-fold increase over baseline (−) up to >6-fold increase over baseline (+++); as a range from <1.2-fold increase over baseline (−) up to >6-fold increase over baseline (+++); as a range from <1.2-fold increase over baseline (−) up to >6-fold increase over baseline (+++); >6-fold increase over baseline (+++). The following applies: Kv7.2/Kv7.3 co-expressing HEK cells, compound 3 μM, steady-state current at end of 2 s pulse to −30 mV. The protocol:
The ability of compounds to potentiate K-currents in Kv7.2/7.3 containing HEK cells was assessed using planar patch-clamp on the QPatch automated screening platform.
Cell Line: The hKv7.2/7.3 cell line was obtained from Chantest (Cleveland, OH 44128) cat. #CT6147. These HEK cells will express the Kv7.2/7.3 ion channels when induced.
Cell Culture: Cells were maintained in a media containing DMEM/F12; 50/50 (GIBCO cat. #11330), 10% Fetal Bovine Serum (FBS) (GIBCO cat. #26140), 100 units/mL Penicillin-Streptomycin (GIBCO cat. #15140), 0.005 mg/mL Blasticidin (INVIVOGEN cat. #ant-bl-1), 0.5 mg/mL Geneticin (GIBCO cat. #10131), 0.1 mg/ml Zeocin (GIBCO cat. #R25001). Cells used in the electrophysiology assay were maintained in a media without Blasticidin, Geneticin and Zeocin for 2 days and channel expression was induced by adding tetracycline (BIOLINE cat. #BIO-87030) at a final concentration of 1 mg/mL. Cells were grown in T-175 flask to ˜75% confluency. Currents were recorded 24 hours after channel induction.
Compound Plates: Test compounds were prepared by performing serial dilutions on a Biomek NX^P (BECKMAN COULTER). Final dilutions were made in external recording solution with a final DMSO concentration of 0.1% DMSO. For single concentration screens each plate had 10 μM retigabine as a positive control and 0.1% DMSO as a negative control.
Electrophysiology: On the day of the experiment cells were washed with Hank's Balanced Salt Solution (HBBS) (GIBCO cat. #14175) and harvested with Tryple (GIBCO cat. #12604). Cells were then centrifuged at 2000 rpm for 5 minutes and resuspended in CHO-S-SFM (GIBCO cat. #12052) at ˜3×10^6 cells/mL. Cells were stirred for 30 minutes before experiments were started. External recording solution contained (in mM): NaCl (145), KCl (4), CaCl2 (2), MgCl2 (1), HEPES (10) and Glucose (10); pH was adjusted to 7.4 with NaOH and the osmolarity was adjusted to 300-305 mOsM with sucrose if necessary. Internal solution contained (in mM): KCl (125), KF (10), EGTA (5), Na2ATP (5), MgCl2 (3.2), HEPES (5); pH was adjusted to 7.2 with KOH and the osmolarity was adjusted to 298-302 mOsM with sucrose.
Potassium channel activity was measured on the QPatch HTX (Sophion Bioscience) using QPlates with 48-wells/plate. Each cell was taken as an independent experiment and only one compound was tested per well. Potassium channel activity was elicited by holding at −80 mV and stepping to −30 mV for 2 s followed by a 100 ms pulse to −120 mV.
Single concentration screen: Baseline conditions were obtained by recording 5 sweeps in the external solution only, this was repeated for three applications of the external solution. […] The steady-state current at the end of the 2 s pulse to −30 mV was measured to determine the fold increase from baseline.
For orientation: In patch-clamp work, channel activity is measured electrically.

As for `CC(C)(C)CC(=O)Nc1nc2ccccc2n1C1CCC1` [Example 1, N-(1-cyclobutyl-1H-benzo[d]imidazol-2-yl)-3,3-dimethylbutanamide], the “Kv7.2/7.3 Activity: increase in current over baseline” value (“Kv7.2/7.3 Activity: increase” below) is given as “+”.

`CC(C)(O)CC(=O)Nc1nc2cc(C(F)(F)F)cc(F)c2n1C1CCC1` [Example 133, N-(1-cyclobutyl-7-fluoro-5-(trifluoromethyl)-1H-benzo[d]imidazol-2-yl)-3-hydroxy-3-methylbutanamide]: the “Kv7.2/7.3 Activity: increase” value is listed as “+”.

With `Cc1cc(-n2c(NC(=O)CC(C)(C)C)nc3ccc(C(F)(F)F)cc32)on1` [Example 46, 3,3-dimethyl-N-(1-(3-methylisoxazol-5-yl)-6-(trifluoromethyl)-1H-benzo[d]imidazol-2-yl)butanamide], the “Kv7.2/7.3 Activity: increase” value is recorded as “+”.

Regarding `C[C@H](C(=O)Nc1nc2ccc(C#N)cc2n1C1CCC1)[C@](C)(O)c1ccccc1` [Example 19, (2S,3S)-N-(6-cyano-1-cyclobutyl-1H-benzo[d]imidazol-2-yl)-3-hydroxy-2-methyl-3-phenylbutanamide], the “Kv7.2/7.3 Activity: increase” value is on record as “+”.

`Cc1cc2nc(NC(=O)C3CC(F)(F)C3)n(C(C)(C)C)c2cc1C#N` [Example 129, N-(1-(tert-butyl)-6-cyano-5-methyl-1H-benzo[d]imidazol-2-yl)-3,3-difluorocyclobutane-1-carboxamide]: the “Kv7.2/7.3 Activity: increase” value is on record as “+/−”.

With `CC(C)(O)Cc1ccc2nc(NC(=O)[C@H]3CC3(C)C)n(C3CCC3)c2c1F` [Example 113, (S)-N-(1-cyclobutyl-7-fluoro-6-(2-hydroxy-2-methylpropyl)-1H-benzo[d]imidazol-2-yl)-2,2-dimethylcyclopropane-1-carboxamide], the “Kv7.2/7.3 Activity: increase” value is on record as “+”.

On to `CC(C)[C@H](C)C(=O)Nc1nc2ccc(Cl)cc2n1C1CCC1` [Example 59, (S)-N-(6-chloro-1-cyclobutyl-1H-benzo[d]imidazol-2-yl)-2,3-dimethylbutanamide], for which the “Kv7.2/7.3 Activity: increase” value is recorded as “+”.

With `Cc1cc2nc(NC(=O)C[C@@](C)(O)c3ccccc3)n(C(C)(C)C)c2cc1C#N` [Example 120, (R)-N-(1-(tert-butyl)-6-cyano-5-methyl-1H-benzo[d]imidazol-2-yl)-3-hydroxy-3-phenylbutanamide], the “Kv7.2/7.3 Activity: increase” value is “+”.

Regarding `C[C@H](C(=O)Nc1nc2ccc(C#N)cc2n1-c1ccc(F)cn1)C(C)(C)C` [Example 75, (S)-N-(6-cyano-1-(5-fluoropyridin-2-yl)-1H-benzo[d]imidazol-2-yl)-2,3,3-trimethylbutanamide], the “Kv7.2/7.3 Activity: increase” value was “++”.

In the case of `Cc1cc2nc(NC(=O)C[C@](C)(O)c3ccc(F)cc3)n(C(C)(C)C)c2cc1C#N` [Example 121, (S)-N-(1-(tert-butyl)-6-cyano-5-methyl-1H-benzo[d]imidazol-2-yl)-3-(4-fluorophenyl)-3-hydroxybutanamide], the “Kv7.2/7.3 Activity: increase” value is on record as “+”.

For the molecule `N#Cc1ccc2nc(NC(=O)CC3(O)CCCC3)n(C3CCC3)c2c1` [Example 81, N-(6-cyano-1-cyclobutyl-1H-benzo[d]imidazol-2-yl)-2-(1-hydroxycyclopentyl)acetamide], the “Kv7.2/7.3 Activity: increase” value is reported as “+”.

Turning to `CC(O)(CC(=O)Nc1nc2ccc(C#N)cc2n1C1CCC1)C1CC1` (stereo not shown) [Example 28, N-(6-cyano-1-cyclobutyl-1H-benzo[d]imidazol-2-yl)-3-cyclopropyl-3-hydroxybutanamide], the “Kv7.2/7.3 Activity: increase” value was “+/−”.

With `CCOC(=O)c1ccc2nc(NC(=O)CC(C)(C)C)n(C3CCC3)c2c1` [Example 50, ethyl 1-cyclobutyl-2-(3,3-dimethylbutanamido)-1H-benzo[d]imidazole-6-carboxylate], the “Kv7.2/7.3 Activity: increase” value is “+/−”.
